Structures are written as SMILES.

Chain of human DGKζ (Q13574 other isoform, or with tags, fused parts or gaps): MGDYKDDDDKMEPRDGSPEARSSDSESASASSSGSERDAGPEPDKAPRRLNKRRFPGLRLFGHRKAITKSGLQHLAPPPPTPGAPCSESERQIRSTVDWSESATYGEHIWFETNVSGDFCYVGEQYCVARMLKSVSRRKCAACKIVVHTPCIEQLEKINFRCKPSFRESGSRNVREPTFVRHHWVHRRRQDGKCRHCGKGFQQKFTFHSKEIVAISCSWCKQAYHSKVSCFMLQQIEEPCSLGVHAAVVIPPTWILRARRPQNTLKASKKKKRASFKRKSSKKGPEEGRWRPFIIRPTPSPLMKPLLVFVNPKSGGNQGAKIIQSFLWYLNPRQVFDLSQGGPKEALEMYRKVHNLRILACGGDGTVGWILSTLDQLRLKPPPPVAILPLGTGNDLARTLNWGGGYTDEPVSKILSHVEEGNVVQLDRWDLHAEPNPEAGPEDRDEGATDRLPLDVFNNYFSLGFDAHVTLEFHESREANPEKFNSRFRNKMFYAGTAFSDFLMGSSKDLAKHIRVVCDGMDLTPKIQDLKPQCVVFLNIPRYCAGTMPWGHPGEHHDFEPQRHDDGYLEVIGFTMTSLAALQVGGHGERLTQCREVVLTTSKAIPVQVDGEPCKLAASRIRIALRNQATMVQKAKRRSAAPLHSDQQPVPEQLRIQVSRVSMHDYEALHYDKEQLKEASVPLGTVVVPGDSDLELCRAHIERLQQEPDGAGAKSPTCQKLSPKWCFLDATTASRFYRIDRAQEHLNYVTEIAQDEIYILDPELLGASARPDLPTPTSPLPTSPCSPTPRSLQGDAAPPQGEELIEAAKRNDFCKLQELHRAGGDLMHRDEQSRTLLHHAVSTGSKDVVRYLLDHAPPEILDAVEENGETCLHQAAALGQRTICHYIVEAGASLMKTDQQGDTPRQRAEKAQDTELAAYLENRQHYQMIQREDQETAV

This assay concerns the target human DGKζ (Homo sapiens (Human), UniProt Q13574). The assay is described as follows: Human DGKζ kinase activity inhibition assay (ADP-Glo). Format: biochemical. To be noted: in vitro human DGKζ kinase activity inhibition assay; read-out: IC50. As to the method:
Human DGKζ Kinase Activity Inhibition Assay. Human diacylglycerol kinase zeta (DGKζ) inhibitory activity of compounds of the present invention was quantified employing the human DGKζ kinase activity assay as described in the following paragraphs. In essence, the enzyme activity was measured by quantification of the adenosine-di-phosphate (ADP) generated as a co-product of the enzyme reaction via the “ADP-Glo™ Kinase Assay” kit from the company Promega. This detection system works as follows: In a first step the adenosine-tri-phosphate (ATP) not consumed in the kinase reaction is quantitatively converted to cyclic adenosine-mono-phosphate (cAMP) employing an adenylate cyclase (“ADP-Glo-reagent”), then the adenylate cyclase is stopped and the ADP generated in the kinase reaction is converted to ATP, which subsequently generates in a luciferase-based reaction a glow-luminescence signal (“Kinase Detection Reagent”). C-terminally FLAG-tagged, recombinant full-length human DGKζ (in house expressed in baculovirus infected insect cells, purified using anti-Flag pulldown and size exclusion chromatography) was used as enzyme. As an alternative, commercially available enzyme by Carnabio can be used. […] Subsequently, 22.55 volumes of a 510 mM solution of octyl-β-D-glucopyranoside (Sigma-Aldrich, Cat. #O8001-10G) in 50 mM MOPS buffer (pH 7.4) were added, and the mixture was sonicated in an ultrasonic bath for 20 s. […] Viewlux™ from Perkin-Elmer). The amount of emitted light was taken as a measure for the amount of ADP generated and thereby for the activity of the DGKζ.
For the molecule `CC(C(N)=O)N(c1ccc(F)cc1)c1nc(N)c(C(=O)c2ccc(OCC(=O)N3CCC[C@H]3C(N)=O)cc2)s1` (mixture of isomers) [Example 110, (2S)-1-[2-[4-[4-amino-2-(N-[2-amino-(1RS)-methyl-2-oxo-ethyl]-4-fluoro-anilino)thiazole-5-carbonyl]phenoxy]acetyl]pyrrolidine-2-carboxamide], the IC50 (in general, the point on the concentration scale where inhibition reaches its midpoint) worked out at 0.366 µM. Next, `CC(C(N)=O)N(c1ccc(F)cc1)c1nc(N)c(C(=O)c2ccc(C(=O)NC[C@H](C)O)cc2)s1` (mixture of isomers) [Example 263, 4-[4-amino-2-(N-(2-amino-1-methyl-2-oxo-ethyl)-4-fluoro-anilino)thiazole-5-carbonyl]-N-[(2S)-2-hydroxypropyl]benzamide (mixture of stereoisomers)]: 0.539 µM; `CC(C(N)=O)N(c1ccc(F)cc1)c1nc(N)c(C(=O)c2ccc(C(=O)NC[C@@H](C)O)cc2)s1` (mixture of isomers) [Example 265, 4-[4-amino-2-(N-(2-amino-1-methyl-2-oxo-ethyl)-4-fluoro-anilino)thiazole-5-carbonyl]-N-[(2R)-2-hydroxypropyl]benzamide (mixture of stereoisomers)]: 0.459 µM. Next, `COc1ccc(N(c2nc(N)c(C(=O)c3ccccc3)s2)C(C)C(N)=O)c(C)c1` (racemic) [Example 1, rac-2-(N-(4-amino-5-benzoyl-thiazol-2-yl)-4-methoxy-2-methyl-anilino)propanamide]: 0.946 µM; `CC(C(N)=O)N(c1ccc(N(C)C)cc1)c1nc(N)c(C(=O)c2ccccc2)s1` (racemic) [Example 2, rac-2-[N-(4-amino-5-benzoyl-thiazol-2-yl)-4-(dimethylamino)anilino]propanamide]: 0.935 µM; `CC(C)Oc1ccc(N(c2nc(N)c(C(=O)c3ccccc3)s2)C(C)C(N)=O)cc1` (racemic) [Example 3, rac-2-(N-(4-amino-5-benzoyl-thiazol-2-yl)-4-isopropoxy-anilino)propanamide]: 0.927 µM. The same measure for `CC(C(N)=O)N(c1nc(N)c(C(=O)c2ccccc2)s1)c1c(F)cc(F)cc1F` (racemic) [Example 4, rac-2-(N-(4-amino-5-benzoyl-thiazol-2-yl)-2,4,6-trifluoro-anilino)propanamide]: 0.833 µM.

On to `CC(C(N)=O)N(c1nc(N)c(C(=O)c2ccccc2)s1)c1ccc(F)cc1Br` (racemic) [Example 5, rac-2-(N-(4-amino-5-benzoyl-thiazol-2-yl)-2-bromo-4-fluoro-anilino)propanamide], for which the IC50 came to 0.757 µM. Next, `Cc1ccc(C(=O)c2sc(N(c3ccc(F)cc3)C(C)C(N)=O)nc2N)cn1` (racemic) [Example 6, rac-2-(N-[4-amino-5-(6-methylpyridine-3-carbonyl)thiazol-2-yl]-4-fluoro-anilino)propanamide]: 0.74 µM. Next, `CC(C(N)=O)N(c1ccc(F)cc1)c1nc(N)c(C(=O)c2ccncc2)s1` (racemic) [Example 7, rac-2-(N-[4-amino-5-(pyridine-4-carbonyl)thiazol-2-yl]-4-fluoro-anilino)propanamide]: 0.705 µM; `CC(C(N)=O)N(c1ccc(F)cc1)c1nc(N)c(C(=O)c2ccccc2F)s1` (racemic) [Example 8, rac-2-(N-[4-amino-5-(2-fluorobenzoyl)thiazol-2-yl]-4-fluoro-anilino)propanamide]: 0.618 µM. The same measure for `CC(C(N)=O)N(c1ccc(C#N)cc1)c1nc(N)c(C(=O)c2ccccc2)s1` (racemic) [Example 9, rac-2-(N-(4-amino-5-benzoyl-thiazol-2-yl)-4-cyano-anilino)propanamide]: 0.536 µM; for `CC(C(N)=O)N(c1ccc(F)cc1)c1nc(N)c(C(=O)c2ccc(Cl)c(C(F)(F)F)c2)s1` (racemic) [Example 10, rac-2-(N-[4-amino-5-[4-chloro-3-(trifluoromethyl)benzoyl]thiazol-2-yl]-4-fluoro-anilino)propanamide]: 0.425 µM.

Consider `CC(C(N)=O)N(c1nc(N)c(C(=O)c2ccccc2)s1)c1ccc(F)cc1Cl` (racemic) [Example 11, rac-2-(N-(4-amino-5-benzoyl-thiazol-2-yl)-2-chloro-4-fluoro-anilino)propanamide], for which the IC50 came to 0.406 µM. With `CC(C(N)=O)N(c1ccc(F)cc1)c1nc(N)c(C(=O)c2cccc(C#N)c2)s1` (racemic) [Example 12, rac-2-(N-[4-amino-5-(3-cyanobenzoyl)thiazol-2-yl]-4-fluoro-anilino)propanamide], the IC50 stood at 0.364 µM. Next, `CC(C(N)=O)N(c1ccc(N(C)C)c(Cl)c1)c1nc(N)c(C(=O)c2ccccc2)s1` (racemic) [Example 13, rac-2-[N-(4-amino-5-benzoyl-thiazol-2-yl)-3-chloro-4-(dimethylamino)anilino]propanamide]: 0.357 µM; `COc1ccc(C(=O)c2sc(N(c3ccc(F)cc3)C(C)C(N)=O)nc2N)cn1` (racemic) [Example 14, rac-2-(N-[4-amino-5-(6-methoxypyridine-3-carbonyl)thiazol-2-yl]-4-fluoro-anilino)propanamide]: 0.334 µM; `CNC(=O)c1ccc(C(=O)c2sc(N(c3ccc(F)cc3)C(C)C(N)=O)nc2N)cc1` (racemic) [Example 15, rac-4-[4-amino-2-(N-[2-amino-1-methyl-2-oxo-ethyl]-4-fluoro-anilino)thiazole-5-carbonyl]-N-methyl-benzamide]: 0.266 µM. `CC(C(N)=O)N(c1ccc(F)cc1)c1nc(N)c(C(=O)c2cccc(F)c2)s1` (racemic) [Example 16, rac-2-(N-[4-amino-5-(3-fluorobenzoyl)thiazol-2-yl]-4-fluoro-anilino)propanamide]: the IC50 is 0.283 µM. Next, `COc1ccc(N(c2nc(N)c(C(=O)c3ccccc3)s2)C(C)C(N)=O)cc1Cl` (racemic) [Example 17, rac-2-(N-(4-amino-5-benzoyl-thiazol-2-yl)-3-chloro-4-methoxy-anilino)propanamide]: 0.261 µM; `COc1ccc(N(c2nc(N)c(C(=O)c3ccc(F)cc3)s2)C(C)C(N)=O)cc1` (racemic) [Example 18, rac-2-(N-[4-amino-5-(4-fluorobenzoyl)thiazol-2-yl]-4-methoxy-anilino)propanamide]: 0.207 µM. For the molecule `CC(C(N)=O)N(c1ccc(F)cc1)c1nc(N)c(C(=O)c2ccc(S(C)(=O)=O)cc2)s1` (racemic) [Example 19, rac-2-(N-[4-amino-5-(4-methylsulfonylbenzoyl)thiazol-2-yl]-4-fluoro-anilino)propanamide], the IC50 was determined as 0.2 µM. Next, `CC(C(N)=O)N(c1ccc(F)cc1)c1nc(N)c(C(=O)c2ccc(-n3ccnc3)cc2)s1` (racemic) [Example 20, rac-2-(N-[4-amino-5-(4-imidazol-1-ylbenzoyl)thiazol-2-yl]-4-fluoro-anilino)propanamide]: 0.161 µM. The same measure for `CC(C(N)=O)N(c1ccc(F)cc1)c1nc(N)c(C(=O)c2ccc(C#N)c(F)c2)s1` (racemic) [Example 21, rac-2-(N-[4-amino-5-(4-cyano-3-fluoro-benzoyl)thiazol-2-yl]-4-fluoro-anilino)propanamide]: 0.142 µM; for `CC(C(N)=O)N(c1ccc(F)cc1)c1nc(N)c(C(=O)c2ccc(C#N)cc2F)s1` (racemic) [Example 22, rac-2-(N-[4-amino-5-(4-cyano-2-fluoro-benzoyl)thiazol-2-yl]-4-fluoro-anilino)propanamide]: 0.13 µM. Take `COc1ccc(C(=O)c2sc(N(c3ccc(F)cc3)C(C)C(N)=O)nc2N)c(F)c1` (racemic) [Example 23, rac-2-(N-[4-amino-5-(2-fluoro-4-methoxy-benzoyl)thiazol-2-yl]-4-fluoro-anilino)propanamide]: the 50% inhibitory concentration (IC50) was 0.13 µM. The same measure for `CC(C(N)=O)N(c1ccc(OC(F)(F)F)cc1)c1nc(N)c(C(=O)c2ccccc2)s1` (racemic) [Example 24, rac-2-[N-(4-amino-5-benzoyl-thiazol-2-yl)-4-(trifluoromethoxy)anilino]propanamide]: 0.115 µM; for `CC(C(N)=O)N(c1ccc(F)cc1)c1nc(N)c(C(=O)c2ccc(F)c(F)c2)s1` (racemic) [Example 25, rac-2-(N-[4-amino-5-(3,4-difluorobenzoyl)thiazol-2-yl]-4-fluoro-anilino)propanamide]: 0.101 µM. Next, `CC(C(N)=O)N(c1ccc(F)cc1)c1nc(N)c(C(=O)c2ccc(Cl)c(Cl)c2)s1` (racemic) [Example 26, rac-2-(N-[4-amino-5-(3,4-dichlorobenzoyl)thiazol-2-yl]-4-fluoro-anilino)propanamide]: 0.0748 µM; `CC(C(N)=O)N(c1ccc(OC(F)(F)F)cc1)c1nc(N)c(C(=O)c2ccc(F)cc2)s1` (racemic) [Example 27, rac-2-[N-[4-amino-5-(4-fluorobenzoyl)thiazol-2-yl]-4-(trifluoromethoxy)anilino]propanamide]: 0.0696 µM; `CC(C(N)=O)N(c1ccc(C(F)(F)F)cc1)c1nc(N)c(C(=O)c2ccccc2)s1` (racemic) [Example 28, rac-2-[N-(4-amino-5-benzoyl-thiazol-2-yl)-4-(trifluoromethyl)anilino]propanamide]: 0.061 µM.

These data come from patent publication US11964953B2, “Substituted aminothiazoles as DGKzeta inhibitors for immune activation” (Bayer Aktiengesellschaft, priority 2020, dated 2024).
